Legend:
Type in all cases: in vivo
[1] = tested on: bradykinin-induced paw oedema; assay: Bradykinin oedema in mouse paw; details: mice, bradykinin 3 nmol/paw intraplantar, captopril pre-treatment; 50 mg/kg orally 1 h before; 10 min to 48 h
Procedure: The test used below is described by Cunha et. al. in the publication Life Sci. 70:159-169, 2001. Male 25 g-35 g mice were slightly sedated with ether and were injected 50 μl saline containing bradykinin (BK, 3 nmol/paw), intraplantar, in the right paw. The left paw received the same volume of saline and was taken as negative control. The swelling was measured with a plethysmometer (manufacturer: Ugo Basile, Italy) along various time points intervals after the injection of the phlogistic agent. The difference between the volumes of the right and the left paw were quantified (in ml) and taken as an index of oedema. One hour before the test the animals were systemically treated (orally) with 50 mg/kg of alpha-humulene or with trans-caryophyllene. The animals were pre-treated with 5 mg/kg of captopril, injected subcutaneously, 1 hour before the test, in order to avoid degradation of […]. Graphs 3A and 3B below compare the inhibition of the volume of the oedema by administration of alpha-humulene (3A) or trans-caryophyllene (3B). Oedema volume measurement time intervals were 10, 20, 30, 60, and 120 min, 24 h and 48 h. Each point represents the average of 5 animals, and the vertical bars the mean standard error deviation.

[2] = tested on: PGE2; assay: Levels of PGE2 in carrageenin-injected rat paw exsudate (Elisa); details: 50 mg/kg orally 60 minutes before carrageenin 300 μg/paw, paw exsudate after 180 minutes
Procedure: The test used below is described by Pinheiro et. al. in the publication Inflamm. Res. 51: 603-610, 2002, with minor modifications. Male 160-180 g rats were orally given 50 mg/kg of trans-caryophyllene. Animals treated with 0.9% (0.1 ml/10 g) saline were used as control. Another group of animals was treated with 0.5 mg/kg dexamethasone, subcutaneously, 4 hours before the test, and used as positive control. After 60 minutes, the animals received intraplantar injections of 100 μl of carrageenin (300 μg/paw) and were sacrificed after 180 minutes. The exsudate of the paws was collected by dialysis with the help of two polyethylene canulas, and was utilized for the quantification of PGE2, with an Elisa kit, according to the manufacturer's instructions (R & D Systems®, USA). The tests were performed in duplicate, and repeated three times. The answers are expressed in pg/mg of tissue. Graph 9 below (each result represents the average of 5 animals, and the vertical bars the mean standard error deviation) compares inhibition of the PGE2 level growth induced by carrageenin in the paws of rats, by administration of alpha-humulene and trans-caryophyllene, compared to the effect obtained by treatment with dexomethasone.

[3] = tested on: PAF-induced oedema; assay: Platelet aggregation factor (PAF) oedema in mouse paw; details: mice, PAF 3 nmol/paw intraplantar; 50 mg/kg orally 1 h before; 30 to 120 min
Procedure: The test used below is described by Cunha et. al. in the publication Life Sci. 70:159-169, 2001. Male 25 g-35 g mice were slightly sedated with ether and were injected 50 μl saline containing platelet aggregation factor (PAF, 3 nmol/paw), intraplantar, in the right paw. The left paw received the same volume of saline and was taken as negative control. The swelling was measured with a plethysmometer (manufacturer: Ugo Basile, Italy) along various time intervals after the injection of the phlogistic agent. The difference between the volumes of the right and the left paw were quantified (in ml) and taken as an index of oedema. One hour before the test the animals were systemically treated (orally) with 50 mg/kg of alpha-humulene or trans-caryophyllene. Graph 5 below compares the inhibition of the volume of the oedema by administration of alpha-humulene (SA) and trans-caryophyllene (5B). Oedema volume measurement time intervals were 30, 45, 60, and 120 min. Each point represents the average of 5 animals, and the vertical bars the mean standard deviation.

[4] = tested on: arachidonic acid ear oedema; assay: Arachidonic acid oedema in mouse ear; details: mice, arachidonic acid 2 mg/ear; topical ointment 0.025 to 0.2% caryophyllene applied 60 minutes before
Procedure: The ear oedema in the test below was measured according to Calixto et. al. in the publication Prostaglandins, 5: 515-526, 1991, with minor modifications. Male 25 g-35 g mice, in a first group, were topically applied, in the inner surface of the ears, an ointment comprising a range from 0.025 to 0.2% alpha-humulene or trans-caryophyllene. In the positive control group, the animals were topically applied 0.05 mg of phenidone per ear. After 60 minutes, the animals received 20 μl of arachidonic acid (2 mg/ear), dissolved in acetone, in the inner surface of the right ear. The oedema was measured using a digital micrometer, and the responses were expressed as μm, the difference between the ear thickness before and after the application of arachidonic acid. The responses of the animals treated with caryophyllenes were compared to those observed in the control group animals, treated with base ointment. Graphs 6A and 6B below compare the inhibition of the volume of the oedema by topic administration of alpha-humulene (6A) and trans-caryophyllene (6B). Oedema volume measurement was performed after application of 0.025%, 0.05%, 0.1, and 0.2% caryophyllene content ointment, compared to the oedema volume caused by the application of phenidone and arachidonic acid (C). Each point represents the average of 5 animals, and the vertical bars the mean standard error deviation.

Compound	bradykinin-induced paw oedema [1]	growth of PGE2 levels induced by carrageenin in the paws of rats [2]	PAF-induced oedema formation [3]	arachidonic acid ear oedema formation [4]
C/C1=C\CC/C(C)=C/CC(C)(C)/C=C/C1 [alpha-humulene]	markedly reduced bradykinin-induced paw oedema	markedly inhibited the growth of PGE2 levels	markedly reduced PAF-induced oedema formation	markedly reduced oedema formation, in a dose-dependent manner
C=C1CC/C=C(\C)CC[C@@H]2[C@@H]1CC2(C)C [trans-caryophyllene]	markedly reduced bradykinin-induced paw oedema	markedly inhibited the growth of PGE2 levels	markedly reduced PAF-induced oedema formation	markedly reduced oedema formation, in a dose-dependent manner
